From the supplement of paper PMC10307832

Key:
Test in all cases: relative viability (nuclei count vs DMSO), 5 days (fraction); higher = more cells survive
Masitinib + Dasatinib = compound: Cc1ccc(NC(=O)c2ccc(CN3CCN(C)CC3)cc2)cc1Nc1nc(-c2cccnc2)cs1 [Masitinib] + Cc1nc(Nc2ncc(C(=O)Nc3c(C)cccc3Cl)s2)cc(N2CCN(CCO)CC2)n1 [Dasatinib] (partner 0.075 µM)
Method in brief: (§1)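 Five library-drug doses in √10 steps were combined with a fixed anchor-drug dose, or a single drug was given alone, by pin tool to lung cancer cell lines in 1536-well plates the day after seeding. Nuclei were stained and counted after 5 days. Relative viability is the nuclei count in treated wells over that in vehicle wells, taken as the median of duplicate plates.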

[1] = compound: CC1=CC(=CC=C1)NC2=NC(=CS2)C3=CC=NC=C3 + CC(C)C[C@H](NC(=O)[C@H](Cc1ccccc1)NC(=O)c1cnccn1)B(O)O [Bortezomib] (partner 0.002 µM)
Method in brief: as §1

[2] = compound: CC1=CC(=CC=C1)NC2=NC(=CS2)C3=CC=NC=C3 + Nc1ncn([C@H]2C[C@H](O)[C@@H](CO)O2)c(=O)n1 [Decitabine] (partner 2 µM)
Method in brief: as §1

Masitinib + Luminespib = compound: Cc1ccc(NC(=O)c2ccc(CN3CCN(C)CC3)cc2)cc1Nc1nc(-c2cccnc2)cs1 [Masitinib] + CCNC(=O)c1noc(-c2cc(C(C)C)c(O)cc2O)c1-c1ccc(CN2CCOCC2)cc1 [Luminespib] (partner 0.01 µM)
Method in brief: as §1

Cell Line | relative viability (Masitinib + Dasatinib; first compound 0.01 µM) | relative viability (Masitinib + Dasatinib; first compound 0.03162 µM) | relative viability (Masitinib + Dasatinib; first compound 0.1 µM) | relative viability (Masitinib + Dasatinib; first compound 0.3162 µM) | relative viability (Masitinib + Dasatinib; first compound 1 µM) | relative viability ([1]; first compound 0.08 µM) | relative viability ([1]; first compound 0.253 µM) | relative viability ([1]; first compound 0.8 µM) | relative viability ([1]; first compound 2.53 µM) | relative viability ([1]; first compound 8 µM) | relative viability ([2]; first compound 0.08 µM) | relative viability ([2]; first compound 0.253 µM) | relative viability ([2]; first compound 0.8 µM) | relative viability ([2]; first compound 2.53 µM) | relative viability ([2]; first compound 8 µM) | relative viability (Masitinib + Luminespib; first compound 0.01 µM) | relative viability (Masitinib + Luminespib; first compound 0.03162 µM) | relative viability (Masitinib + Luminespib; first compound 0.1 µM) | relative viability (Masitinib + Luminespib; first compound 0.3162 µM) | relative viability (Masitinib + Luminespib; first compound 1 µM)
201T | 0.53 | 0.594 | 0.521 | 0.42 | 0.491 | 1.05 | 1.06 | 1.08 | 0.888 | 0.919 | 0.898 | 0.904 | 0.909 | 0.937 | 0.827 | 0.821 | 1.13 | 0.944 | 1.07 | 0.993
A549 |  |  |  |  |  |  |  |  |  |  | 0.281 | 0.173 | 0.284 | 0.275 | 0.256 |  |  |  |  | 
A-427 |  | 0.726 |  | 0.802 | 0.695 | 0.84 | 1.03 | 0.895 |  | 0.84 | 0.558 | 0.544 | 0.547 | 0.548 | 0.546 |  | 1.1 | 1.13 | 0.814 | 1.18
ABC-1 | 0.58 | 0.588 | 0.629 | 0.428 | 0.521 | 0.316 | 0.265 | 0.328 | 0.315 | 0.32 | 1.01 |  | 1.23 | 0.933 | 0.626 | 0.397 | 0.692 | 0.743 | 0.484 | 0.429
BEN | 0.341 |  | 0.271 | 0.308 | 0.281 | 0.816 | 0.618 | 0.546 | 0.697 | 0.794 | 0.636 | 0.687 | 0.772 | 0.588 | 0.781 | 0.436 |  | 0.631 | 0.378 | 0.37
CAL-12T | 0.452 | 0.381 | 0.34 | 0.306 | 0.374 | 0.757 |  | 1.01 | 0.719 | 0.954 |  |  |  |  |  | 0.513 | 0.403 | 0.363 | 0.469 | 0.306
COR-L23 | 0.411 | 0.419 | 0.531 | 0.437 | 0.543 | 1.01 | 0.913 | 0.779 | 0.924 | 0.595 | 0.404 | 0.378 | 0.429 | 0.379 | 0.388 | 0.598 | 0.598 | 0.798 | 0.931 | 0.579
COR-L 105 | 0.37 | 0.338 | 0.305 | 0.288 | 0.286 | 0.7 | 0.804 | 0.734 | 0.563 | 0.456 | 0.648 | 0.691 | 0.624 | 0.572 | 0.533 | 0.758 | 0.677 | 0.776 | 0.686 | 0.66
Calu-6 |  |  |  |  |  | 0.951 | 0.838 | 0.88 | 0.94 | 0.926 |  |  |  |  |  |  |  |  |  | 
ChaGo-K-1 | 0.577 | 0.575 | 0.54 | 0.546 | 0.629 | 0.866 | 0.775 | 1.06 | 0.579 | 0.812 | 0.528 | 0.528 | 0.519 | 0.522 | 0.499 | 0.681 | 0.48 | 0.635 | 0.524 | 0.569
EBC-1 |  |  |  |  |  | 0.434 | 0.463 | 0.602 | 0.517 | 0.282 |  |  |  |  |  |  |  |  |  | 
EKVX | 0.557 | 0.387 | 0.535 | 0.464 | 0.41 | 1.01 | 0.994 | 0.747 | 0.957 | 0.696 | 0.289 | 0.397 |  | 0.356 | 0.316 |  | 0.997 | 0.599 | 0.93 | 0.786
EMC-BAC-2 | 0.35 | 0.33 | 0.397 | 0.314 | 0.296 | 0.982 | 1.04 | 1.01 | 0.99 | 0.927 | 0.916 |  | 0.91 | 0.918 | 0.884 | 1.01 | 1.06 | 1.15 | 1.13 | 1.16
EPLC-272H | 0.509 | 0.416 | 0.337 | 0.373 | 0.242 | 1.03 |  | 0.73 |  | 0.352 | 0.339 | 0.37 | 0.348 |  | 0.352 | 0.27 | 0.237 | 0.262 | 0.195 | 0.232
H3255 | 0.335 | 0.363 | 0.336 | 0.349 | 0.339 | 0.664 | 0.624 | 0.886 | 0.586 | 0.604 | 0.576 | 0.506 | 0.581 | 0.601 | 0.553 | 0.586 | 0.772 | 0.611 | 1.02 | 0.838
HARA |  | 0.289 | 0.283 | 0.152 | 0.258 | 1.09 | 1.16 | 1.1 | 1.03 | 0.936 | 0.508 | 0.438 | 0.539 | 0.48 | 0.664 |  | 0.609 | 0.44 | 0.682 | 0.731
